From PubChem BioAssay (NCI)
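Tested at 5 concentrations; 48 h exposure; 96-well plates; endpoints linearly interpolated, else capped at highest concentration. GI50 is the concentration that inhibits growth by half. TGI is the concentration that stops growth completely.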

How the values were obtained:
Assay in all cases: DTP human tumour cell line panel, 48 h
SW-620 colon = tested on: SW-620 colon
NCI-H226 lung = tested on: NCI-H226 lung
OVCAR-5 ovarian = tested on: OVCAR-5 ovarian
NCI-H23 lung = tested on: NCI-H23 lung
SN12C renal = tested on: SN12C renal
OVCAR-4 ovarian = tested on: OVCAR-4 ovarian
IGROV1 ovarian = tested on: IGROV1 ovarian
A498 renal = tested on: A498 renal
PC-3 prostate = tested on: PC-3 prostate
NCI/ADR-RES ovarian = tested on: NCI/ADR-RES ovarian

Row | Compound | TGI (SW-620 colon) | TGI (NCI-H226 lung) | TGI (OVCAR-5 ovarian) | TGI (NCI-H23 lung) | TGI (SN12C renal) | TGI (OVCAR-4 ovarian) | TGI (IGROV1 ovarian) | TGI (A498 renal) | GI50 (SW-620 colon) | GI50 (OVCAR-5 ovarian) | GI50 (NCI-H23 lung) | GI50 (SN12C renal) | GI50 (PC-3 prostate) | TGI (PC-3 prostate) | GI50 (IGROV1 ovarian) | GI50 (NCI/ADR-RES ovarian) | TGI (NCI/ADR-RES ovarian) | GI50 (OVCAR-4 ovarian) | GI50 (A498 renal) | GI50 (NCI-H226 lung)
1 | CCOC(=O)c1oc2ccc(OC)c3c2c1CCC3 | > 100 µM | > 100 µM | > 100 µM | > 100 µM | > 100 µM | > 100 µM | > 100 µM | > 100 µM | – | – | – | – | – | – | – | – | – | – | – | –
2 | COc1cc2c(cc1OC(=O)CC(C)O)C1C(OC2=O)C(OC(C)=O)C=C2CCN(C)[C@H]21 (stereo not given in full) | > 100 µM | 65.9 µM | > 100 µM | > 100 µM | > 100 µM | > 100 µM | 70.4 µM | 45.5 µM | – | – | – | – | – | – | – | – | – | – | – | –
3 | CCN(C(=O)N1CCN(c2cc3c(cc2F)c(=O)c(C(=O)O)cn3C2CC2)CC1)c1nc(-c2ccc(C)cc2)cs1 | > 100 µM | – | > 100 µM | 24.6 µM | > 100 µM | – | > 100 µM | 0.486 µM | 0.653 µM | 0.68 µM | 0.399 µM | 0.365 µM | 0.375 µM | > 100 µM | 0.354 µM | – | – | – | – | –
4 | O=C(/C(=C/c1ccc([N+](=O)[O-])cc1)c1ccccc1)c1ccccc1 | – | – | > 100 µM | – | – | > 100 µM | > 100 µM | 8.86 µM | – | 4.91 µM | – | – | 4.28 µM | > 100 µM | 3.25 µM | 3.23 µM | > 100 µM | 3.57 µM | 1.98 µM | –
5 | CCOC(=O)C1Oc2ccc([N+](=O)[O-])c3c2C1(O)CCC3 (stereo not given) | > 100 µM | > 100 µM | > 100 µM | > 100 µM | > 100 µM | > 100 µM | > 100 µM | > 100 µM | – | – | – | – | – | – | – | – | – | – | – | –
6 | COc1ccc(N=c2ssc3c(=S)ssc23)cc1 | 35.8 µM | > 100 µM | > 100 µM | > 100 µM | > 100 µM | > 100 µM | 26.3 µM | – | – | – | – | – | – | – | – | – | – | – | – | –
7 | N#CC(C(=O)CCC(=O)Nc1cccc(Cl)c1)c1ccccc1 (stereo not given) | – | > 100 µM | > 100 µM | > 100 µM | > 100 µM | > 100 µM | > 100 µM | > 100 µM | – | – | – | – | – | – | – | – | – | – | – | –
8 | O=c1[nH]c2ccccc2nc1-c1c[nH]c2ccccc12 | > 100 µM | – | > 100 µM | > 100 µM | > 100 µM | > 100 µM | > 100 µM | > 100 µM | > 100 µM | > 100 µM | > 100 µM | > 100 µM | > 100 µM | > 100 µM | 1.26 µM | > 100 µM | > 100 µM | > 100 µM | 7.4 µM | –
9 | CCOC(=O)C1=C(NC)OC/C1=N\NC(=O)c1ccccc1O | > 100 µM | 60.6 µM | > 100 µM | 54.9 µM | > 100 µM | 83.5 µM | > 100 µM | > 100 µM | – | – | – | – | – | – | – | – | – | – | – | –
10 | O=C(C1CCCCC1)[C@@H]1[C@]2(C(=O)NC3CCCCC32)[C@@H]2CCCN2[C@@]12C(=O)NC1CCC(Cl)CC12 (stereo not given in full) | 238 µM | 411 µM | 284 µM | 274 µM | 197 µM | 218 µM | 202 µM | 265 µM | 98.6 µM | 149 µM | 119 µM | 61.2 µM | – | – | 53.2 µM | 127 µM | 310 µM | 64.4 µM | 130 µM | 179 µM
11 | COc1cc2c(cc1OCCCCOc1cc3c(cc1OC)C(=O)N1CCC[C@H]1CN3)N=C[C@@H]1CCCN1C2=O | > 22.9 µM | 4.49 µM | > 28.7 µM | 5.8 µM | 18.2 µM | > 100 µM | > 27 µM | – | 0.931 µM | 3.09 µM | 2.22 µM | 2.29 µM | 2.02 µM | 97.9 µM | 2.42 µM | 45 µM | > 100 µM | 4.61 µM | – | 1.94 µM
12 | COc1cc(C(=O)C/C(CCC(=O)Nc2ccccc2[N+](=O)[O-])=N\NC(=O)CC#N)ccc1O | > 100 µM | > 100 µM | > 100 µM | > 100 µM | > 100 µM | > 100 µM | > 100 µM | > 100 µM | – | – | – | – | – | – | – | – | – | – | – | –
13 | CCC1CN2CCc3cc(OC)c(OC)cc3C2CC1CC1c2cc(OC)c(OC)cc2CCN1C(=O)C1CCCN1C(=O)OCc1ccccc1 (stereo not given) | 28 µM | 30.9 µM | 34.2 µM | 32.7 µM | 30.6 µM | 27.4 µM | 33.4 µM | 29.9 µM | – | – | – | – | – | – | – | – | – | – | – | –
14 | Cn1cnc2nc(Cl)nc(NC(C)(C)C(C)(C)O)c21 | > 100 µM | > 100 µM | > 100 µM | > 100 µM | > 100 µM | > 100 µM | > 100 µM | > 100 µM | – | – | – | – | – | – | – | – | – | – | – | –
15 | C=CCOC1OC(CO[Si](C)(C)C(C)(C)C)C(OCc2ccccc2)C(OCc2ccccc2)C1OCc1ccccc1 (stereo not given) | > 100 µM | > 100 µM | > 100 µM | > 100 µM | > 100 µM | > 100 µM | > 100 µM | – | – | – | – | – | – | > 100 µM | – | – | > 100 µM | – | – | –
16 | CC(=O)OC1CCn2nnc(CO[Si](C)(C)C(C)(C)C)c21 (stereo not given) | > 100 µM | > 100 µM | > 100 µM | > 100 µM | > 100 µM | > 100 µM | > 100 µM | – | – | – | – | – | – | – | – | – | – | – | – | –
17 | COc1ccc(C2=C(Cl)c3cc(OC)c(OC)cc3C2Cl)cc1OC (stereo not given) | 34.5 µM | – | 30.2 µM | 38.2 µM | 38.4 µM | 47.5 µM | 44.2 µM | – | – | – | – | – | – | – | – | – | – | – | – | –
18 | COc1cc2c(c(OC)c1OC)-c1ncc3cc(OC)c(OC)c(OC)c3c1C2 | 98.7 µM | – | > 100 µM | – | 73.7 µM | > 100 µM | 63.2 µM | – | 32.4 µM | 22.5 µM | – | 17.6 µM | 44.2 µM | > 100 µM | 25.2 µM | 12.1 µM | 51.2 µM | 44.5 µM | – | –
19 | O=C1c2ccccc2-c2c1c1ccc([N+](=O)[O-])cc1c(=O)n2CCCBr | > 100 µM | – | > 100 µM | 5.76 µM | > 100 µM | > 100 µM | > 100 µM | – | 5.26 µM | > 100 µM | 1.1 µM | > 100 µM | > 100 µM | > 100 µM | > 100 µM | – | – | > 100 µM | – | –
20 | O=C(O)C1(P(=O)(O)O)CC1 | > 100 µM | – | – | > 100 µM | > 100 µM | > 100 µM | > 100 µM | > 100 µM | – | – | – | – | – | – | – | – | – | – | – | –
